US20250129070A1, “BIFUNCTIONAL ANDROGEN RECEPTOR COMPOUNDS” (priority 2023, published 2025)
pEC50, pIC50: −log10 of the molar value.

Key:
Format in all cases: cell-based
[1] = system: VCaP cells; assay: VCaP growth inhibition assay; conditions: 30 pM R1881, 9 days, CTG
How it was run: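 Growth read by CTG luminescence after 9-day exposure to compound (final 100 nM–10 fM, 1:5 steps) plus 30 pM R1881, in phenol red-free DMEM with 5% CSS. Cells pre-incubated 72 h before dosing; IC50 by nonlinear 4-parameter regression.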

[2] = system: HEK-293 cells; assay: HEK-293 growth inhibition assay; conditions: 3 days, CTG
Protocol: Cluster plates are returned to the incubator (37*C/5% CO2) for 24 hours prior to treatment. […] Cluster plates are returned to the incubator for 3 days.
After the 3-day treatment period, 100 uL media was removed from each well by aspiration and 100 uL room temperature CTG reagent (Promega Cat #G7573) is added back to each well. The cluster plates are placed on a shaker and incubated at room temperature for 20 minutes. Following this shaking/incubation, cluster plates are read on a luminometer (BMG ClarioStar). IC50 values are obtained by graphing the RLU data vs. compound concentration with nonlinear regression 4-parameter logistic curves (GraphPad Prism).

[3] = system: AR / CBP ternary complex; assay: Ternary complex formation assay (sandwich ELISA, AR capture / CBP detection) in VCaP cell lysates; conditions: 1.5 hours treatment, sandwich ELISA (AR capture, CBP or p300 detection)
How it was run: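 Anti-AR (AR 441)-coated plates capture AR from lysates of VCaP cells grown ≥3 days at 50K/well in 5% charcoal-stripped FBS, dosed with bifunctional for 1.5 h and lysed 30 min at 4 °C. Co-captured CBP/p300 is probed with rabbit mAb and HRP anti-rabbit, then QuantaRed fluorescence (570/585) is read at 0, 5 and 15 min.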

CC(=O)N1CCc2c(c(-c3cccc4cc(-c5ccc(C(=O)NCc6ncc(C(=O)NC7C(C)(C)C(Oc8ccc(C#N)c(Cl)c8)C7(C)C)cn6)nc5)ncc34)nn2C2CCOCC2)C1 (stereo not drawn) [Compound 79, 2-[[[5-[8-(5-acetyl-1-tetrahydropyran-4-yl-6,7-dihydro-4H-pyrazolo[4,3-c]pyridin-3-yl)-3-isoquinolyl]pyridine-2-carbonyl]amino]methyl]-N-[3-(3-chloro-4-cyano-phenoxy)-2,2,4,4-tetramethyl-cyclobutyl]pyrimidine-5-carboxamide]
pIC50 [1]: 9.00 to 10.00 | pIC50 [2]: < 5.00 | pEC50 [3]: > 9.00

COc1cc(OC2C(C)(C)C(NC(=O)c3ccc(N4CC(C)C(CN5CCC(n6nc(N7CCCc8cc(-c9cnn(C)c9)c(C(F)F)cc87)c7c6CCN(C(C)=O)C7)CC5)C(C)C4)cc3)C2(C)C)ccc1C#N (stereo not drawn) [Compound 327, 4-[4-[[4-[5-acetyl-3-[7-(difluoromethyl)-6-(1-methylpyrazol-4-yl)-3,4-dihydro-2H-quinolin-1-yl]-6,7-dihydro-4H-pyrazolo[4,3-c]pyridin-1-yl]-1-piperidyl]methyl]-3,5-dimethyl-1-piperidyl]-N-[3-(4-cyano-3-methoxy-phenoxy)-2,2,4,4-tetramethyl-cyclobutyl]benzamide]
pIC50 [1]: 9.00 to 10.00 | pIC50 [2]: < 6.00 | pEC50 [3]: > 9.00

CNC(=O)N1CCc2c(c(N3CCCc4cc(-c5cnn(C)c5)c(C(F)F)cc43)nn2C2CCN(C(=O)COC3CCN(c4ncc(C(=O)NC5C(C)(C)C(Oc6ccc(C#N)c(Cl)c6)C5(C)C)cn4)CC3)CC2)C1 (stereo not drawn) [Compound 100, 1-[1-[2-[[1-[5-[[3-(3-chloro-4-cyano-phenoxy)-2,2,4,4-tetramethyl-cyclobutyl]carbamoyl]pyrimidin-2-yl]-4-piperidyl]oxy]acetyl]-4-piperidyl]-3-[7-(difluoromethyl)-6-(1-methylpyrazol-4-yl)-3,4-dihydro-2H-quinolin-1-yl]-N-methyl-6,7-dihydro-4H-pyrazolo[4,3-c]pyridine-5-carboxamide]
pIC50 [1]: ≥ 10.00 | pIC50 [2]: < 5.00 | pEC50 [3]: > 9.00

CNC(=O)N1CCc2c(c(N3CCCc4cc(-c5cnn(C)c5)c(C(F)F)cc43)nn2C2CCN(CCOc3ncc(C(=O)NC4C(C)(C)C(Oc5ccc(C#N)c(Cl)c5)C4(C)C)cn3)CC2)C1 (stereo not drawn) [Compound 87, 1-[1-[2-[5-[[3-(3-chloro-4-cyano-phenoxy)-2,2,4,4-tetramethyl-cyclobutyl]carbamoyl]pyrimidin-2-yl]oxyethyl]-4-piperidyl]-3-[7-(difluoromethyl)-6-(1-methylpyrazol-4-yl)-3,4-dihydro-2H-quinolin-1-yl]-N-methyl-6,7-dihydro-4H-pyrazolo[4,3-c]pyridine-5-carboxamide]
pIC50 [1]: 9.00 to 10.00 | pIC50 [2]: < 5.00 | pEC50 [3]: > 9.00

CC(=O)N1CCc2c(c(N3CCCc4cc(-c5cnn(C)c5)c(C(F)F)cc43)nn2C2CCN(C(=O)CC3CCN(c4ncc(C(=O)NC5C(C)(C)C(Oc6ccc(C#N)c(Cl)c6)C5(C)C)cn4)CC3)CC2)C1 (stereo not drawn) [Compound 172, 2-[4-[2-[4-[5-acetyl-3-[7-(difluoromethyl)-6-(1-methylpyrazol-4-yl)-3,4-dihydro-2H-quinolin-1-yl]-6,7-dihydro-4H-pyrazolo[4,3-c]pyridin-1-yl]-1-piperidyl]-2-oxo-ethyl]-1-piperidyl]-N-[3-(3-chloro-4-cyano-phenoxy)-2,2,4,4-tetramethyl-cyclobutyl]pyrimidine-5-carboxamide]
pIC50 [1]: ≥ 10.00 | pIC50 [2]: < 5.00 | pEC50 [3]: > 9.00

CNC(=O)N1CCc2c(c(N3CCCc4cc(-c5cnn(C)c5)c(C(F)F)cc43)nn2C2CCN(C(=O)COCCC3CCN(c4ncc(C(=O)NC5C(C)(C)C(Oc6ccc(C#N)c(Cl)c6)C5(C)C)cn4)CC3)CC2)C1 (stereo not drawn) [Compound 99, 1-[1-[2-[2-[1-[5-[[3-(3-chloro-4-cyano-phenoxy)-2,2,4,4-tetramethyl-cyclobutyl]carbamoyl]pyrimidin-2-yl]-4-piperidyl]ethoxy]acetyl]-4-piperidyl]-3-[7-(difluoromethyl)-6-(1-methylpyrazol-4-yl)-3,4-dihydro-2H-quinolin-1-yl]-N-methyl-6,7-dihydro-4H-pyrazolo[4,3-c]pyridine-5-carboxamide]
pIC50 [1]: ≥ 10.00 | pIC50 [2]: < 5.00 | pEC50 [3]: > 9.00

CC(=O)N1CCc2c(c(N3CCCc4cc(-c5cnn(C)c5)c(C(F)F)cc43)nn2C2CCN(C(=O)CN3CCN(c4ncc(C(=O)NC5C(C)(C)C(Oc6ccc(C#N)c(Cl)c6)C5(C)C)cn4)CC3)C2)C1 (stereo not drawn) [Compound 64, 2-[4-[2-[3-[5-acetyl-3-[7-(difluoromethyl)-6-(1-methylpyrazol-4-yl)-3,4-dihydro-2H-quinolin-1-yl]-6,7-dihydro-4H-pyrazolo[4,3-c]pyridin-1-yl]pyrrolidin-1-yl]-2-oxo-ethyl]piperazin-1-yl]-N-[3-(3-chloro-4-cyano-phenoxy)-2,2,4,4-tetramethyl-cyclobutyl]pyrimidine-5-carboxamide]
pIC50 [1]: 9.00 to 10.00 | pIC50 [2]: < 5.00 | pEC50 [3]: > 9.00

CC(=O)N1CCc2c(c(-c3cccc4cc(-c5ccc(OCc6ncc(C(=O)NC7C(C)(C)C(Oc8ccc(C#N)c(Cl)c8)C7(C)C)cn6)nc5)ncc34)nn2C2CCOCC2)C1 (stereo not drawn) [Compound 72, 2-[[5-[8-(5-acetyl-1-tetrahydropyran-4-yl-6,7-dihydro-4H-pyrazolo[4,3-c]pyridin-3-yl)-3-isoquinolyl]-2-pyridyl]oxymethyl]-N-[3-(3-chloro-4-cyano-phenoxy)-2,2,4,4-tetramethyl-cyclobutyl]pyrimidine-5-carboxamide]
pIC50 [1]: 9.00 to 10.00 | pIC50 [2]: < 5.00 | pEC50 [3]: > 9.00

CC(=O)N1CCc2c(c(N3CCCc4cc(-c5cnn(C)c5)c(C(F)F)cc43)nn2C2CCN(S(=O)(=O)C3CCN(c4ncc(C(=O)NC5C(C)(C)C(Oc6ccc(C#N)c(Cl)c6)C5(C)C)cn4)CC3)CC2)C1 (stereo not drawn) [Compound 28, 2-[4-[[4-[5-acetyl-3-[7-(difluoromethyl)-6-(1-methylpyrazol-4-yl)-3,4-dihydro-2H-quinolin-1-yl]-6,7-dihydro-4H-pyrazolo[4,3-c]pyridin-1-yl]-1-piperidyl]sulfonyl]-1-piperidyl]-N-[3-(3-chloro-4-cyano-phenoxy)-2,2,4,4-tetramethyl-cyclobutyl]pyrimidine-5-carboxamide]
pIC50 [1]: ≥ 10.00 | pIC50 [2]: < 5.00 | pEC50 [3]: > 9.00

CNC(=O)N1CCc2c(c(N3CCCc4cc(-c5cnn(C)c5)c(C(F)F)cc43)nn2C2CCN(C(=O)COCCOCCCN3CCN(c4ncc(C(=O)NC5C(C)(C)C(Oc6ccc(C#N)c(Cl)c6)C5(C)C)cn4)CC3)CC2)C1 (stereo not drawn) [Compound 102, 1-[1-[2-[2-[3-[4-[5-[[3-(3-chloro-4-cyano-phenoxy)-2,2,4,4-tetramethyl-cyclobutyl]carbamoyl]pyrimidin-2-yl]piperazin-1-yl]propoxy]ethoxy]acetyl]-4-piperidyl]-3-[7-(difluoromethyl)-6-(1-methylpyrazol-4-yl)-3,4-dihydro-2H-quinolin-1-yl]-N-methyl-6,7-dihydro-4H-pyrazolo[4,3-c]pyridine-5-carboxamide]
pIC50 [1]: 9.00 to 10.00 | pIC50 [2]: < 5.00 | pEC50 [3]: > 9.00

CC(=O)N1CCc2c(c(N3CCCc4cc(-c5cnn(C)c5)c(C(F)F)cc43)nn2C2CCN(CC3CCN(c4ncc(C(=O)NC5C(C)(C)C(Oc6ccc(C#N)c(Cl)c6)C5(C)C)cn4)CC3(C)C)CC2)C1 (stereo not drawn) [Compound 356, 2-[4-[[4-[5-acetyl-3-[7-(difluoromethyl)-6-(1-methylpyrazol-4-yl)-3,4-dihydro-2H-quinolin-1-yl]-6,7-dihydro-4H-pyrazolo[4,3-c]pyridin-1-yl]-1-piperidyl]methyl]-3,3-dimethyl-1-piperidyl]-N-[3-(3-chloro-4-cyano-phenoxy)-2,2,4,4-tetramethyl-cyclobutyl]pyrimidine-5-carboxamide]
pIC50 [1]: ≥ 10.00 | pIC50 [2]: < 6.00 | pEC50 [3]: > 9.00

CNC(=O)N1CCc2c(c(N3CCCc4cc(-c5cnn(C)c5)c(C(F)F)cc43)nn2C2CCN(C(=O)CC3CCN(c4ncc(C(=O)NC5C(C)(C)C(Oc6ccc(C#N)c(Cl)c6)C5(C)C)cn4)CC3)CC2)C1 (stereo not drawn) [Compound 101, 1-[1-[2-[1-[5-[[3-(3-chloro-4-cyano-phenoxy)-2,2,4,4-tetramethyl-cyclobutyl]carbamoyl]pyrimidin-2-yl]-4-piperidyl]acetyl]-4-piperidyl]-3-[7-(difluoromethyl)-6-(1-methylpyrazol-4-yl)-3,4-dihydro-2H-quinolin-1-yl]-N-methyl-6,7-dihydro-4H-pyrazolo[4,3-c]pyridine-5-carboxamide]
pIC50 [1]: ≥ 10.00 | pIC50 [2]: < 5.00 | pEC50 [3]: > 9.00

CC(=O)N1CCc2c(c(N3CCCc4cc(-c5cnn(C)c5)c(C(F)F)cc43)nn2C2CCN(CC3C(C)CN(c4ncc(C(=O)NC5C(C)(C)C(Oc6ccc(C#N)c(Cl)c6)C5(C)C)cn4)CC3C)CC2)C1 (stereo not drawn) [Compound 350, 2-[4-[[4-[5-acetyl-3-[7-(difluoromethyl)-6-(1-methylpyrazol-4-yl)-3,4-dihydro-2H-quinolin-1-yl]-6,7-dihydro-4H-pyrazolo[4,3-c]pyridin-1-yl]-1-piperidyl]methyl]-3,5-dimethyl-1-piperidyl]-N-[3-(3-chloro-4-cyano-phenoxy)-2,2,4,4-tetramethyl-cyclobutyl]pyrimidine-5-carboxamide]
pIC50 [1]: ≥ 10.00 | pIC50 [2]: < 6.00 | pEC50 [3]: > 9.00
